Read-outs that look alike come from different tables or passages of the source.
What was measured:
[1] = design: species or system Beagle dogs; conditions: dog, in vivo, po
Description: (§1) Animals were dosed with N-1-pyrrolidine-N-5-(3-trifluoromethoxy)phenyl biguanide acetate salt as specified in Table 1. Dosages were freshly prepared on the day of dosing. The PO (per os) solution was DI water. The enteric capsule was HMPC enteric-coated capsules. The test substance was prepared and used immediately before administration. The preparation method was to weigh N-1-pyrrolidine-N-5-(3-trifluoromethoxy)phenyl biguanide and add sterile distilled water. The mixture was titrated to final volumes by mixing via sonication for 2 minutes and vortexing for 5 minutes. During the administration time, the preparation was handled at room temperature. All animals for IV administration had free access to food and water. Animals for PO were fasted overnight prior to dosing and were fed approximately 2 hours after dosing. Group 2 shared the same 2 animals. Animals in PO_A arm were dosed first. After 2 days washout period, animals in PO_B arm were dosed. After 2 days washout period, animals in PO_C arm were dosed. Clinical observations of animals treated with compound 1 were recorded as specified in Tables 3-5.
Plasma for both IV and PO dosing was sampled from animals pre-dose, and 5 minutes, 15 minutes, 30 minutes, 1 hour, 2 hours, 4 hours, 8 hours, and 24 hours post dose.
Samples were collected via venipuncture of peripheral veins except the dosing vein. 0.3 mL of blood was drawn per time point. The anticoagulant used was potassium EDTA. Whole blood samples were gently inverted several times to ensure anticoagulation then placed on wet ice prior to centrifugation. Within 30 minutes of collection, the samples were centrifuged at approximately 2000×g (force) for 10 minutes at 2 to 8° C. to obtain plasma. The resultant plasma samples were immediately separated divided into 2 aliquots (˜[…] each) and transferred to cryogenic vial. Samples were maintained on wet ice throughout processing and stored in a freezer at −75±15° C. prior to analysis.
The standard curve was run in duplicate with a minimum of six standards, and a minimum of five standards and the LLOQ should fall within ±20% of the nominal value. Verapamil and dexamethasone were normally used as internal standards. […] A minimum of duplicate QC's at three concentrations (low, mid, and high QC) were incorporated into each run with the low QC no more than 3×LLOQ, the mid QC around the middle of the curve, and the high QC should be near the ULOQ (minimally 80% but less than 100% of the value of the highest standard) for the run and the mean value should be within ±20% of the theoretical value. The results of the QC's provide the basis for accepting or rejecting the run. At least 67% or four of six QC's should be within 20% of their respective nominal values; 33% of the QC's (not replicates of the same concentration) can fall outside 20% of nominal value. The simplest model that adequately describes the concentration-response relationship should be used. Linear or quadratic regression can be used. Weighting was 1/x or 1/x2.
Concentrations of Test Article in the plasma samples were analyzed using a LC-MS/MS method. WinNonlin (Phoenix™, version 6.1) or other similar software will be used for pharmacokinetic calculations. The following pharmacokinetic parameters were be calculated, whenever possible from the plasma concentration versus time data: PO administration: T1/2, Cmax, Tmax, MRTinf, AUCinf, AUClast, F%, Number of Points for Regression (FIG. 1). […]

Beagle dogs = experiment: Clinical Observation/Cageside Observation of dogs treated with compound 1 (Example 1); format: in vivo
Description: as §1

human subjects [2] = conditions: in vivo
Description: A phase 1 clinical study investigating the safety and tolerability of compound 1 in human subjects was conducted. Healthy volunteers were administered either an uncoated tablet at 100 mg QD (cohort 1, N=6), 200 mg QD (cohort 2, N=6), or 400 mg QD (cohort 3, N=6), or a coated tablet at 400 mg (cohort 4, N=6) or 800 mg QD (cohort 5, N=6), and the compound 1 plasma concentration achieved by the subjects was recorded over time (FIGS. 2 and 4). Cancer patients were administered either an uncoated tablet at 100 mg QOD (cohort 1, N=3), 200 mg QOD (cohort 2, N=3), 400 mg QOD (cohort 3, N=3), 800 mg QOD (cohort 4, N=3), or 1200 mg QOD (cohort 5, N=3), or were administered an uncoated tablet at 800 mg QD (cohort 6, N=3) or 1200 mg QD (cohort 7, N=4), and the compound 1 plasma concentration achieved by the subjects was recorded over time (FIGS. 3 and 4).

human subjects [3] = conditions: in vivo; remark: listed apart in the source
Description: A phase 1 clinical study investigating the safety and tolerability of compound 1 in human subjects was conducted. Healthy volunteers were administered either an uncoated tablet at 100 mg QD (cohort 1, N=6), 200 mg QD (cohort 2, N=6), or 400 mg QD (cohort 3, N=6), or a coated tablet at 400 mg (cohort 4, N=6) or 800 mg QD (cohort 5, N=6), and the compound 1 plasma concentration achieved by the subjects was recorded over time (FIGS. 2 and 4). Cancer patients were administered either an uncoated tablet at 100 mg QOD (cohort 1, N=3), 200 mg QOD (cohort 2, N=3), 400 mg QOD (cohort 3, N=3), 800 mg QOD (cohort 4, N=3), or 1200 mg QOD (cohort 5, N=3), or were administered an uncoated tablet at 800 mg QD (cohort 6, N=3) or 1200 mg QD (cohort 7, N=4), and the compound 1 plasma concentration achieved by the subjects was recorded over time (FIGS. 3 and 4). A phase 1 clinical study investigating the safety and tolerability of compound 1 in human subjects was conducted. 22 subjects with solid tumors were enrolled and split into seven cohorts. Cohort 1 received 100 mg QOD, cohort 2 received 200 mg QOD, cohort 3 received 400 mg QOD, cohort 4 received 800 mg QOD, cohort 5 received […], cohort 6 received 800 mg QD, and cohort 7 received 1,200 mg QD.

N=C(NC(=N)N1CCCC1)Nc1cccc(OC(F)(F)F)c1 [compound 1, N-1-pyrrolidine-N-5-(3-trifluoromethoxy)phenyl biguanide]
Notes: AUC [1]: Improved AUC
Notes: Bioavailability [1]: Improved
Notes: PK [1]: no difference in PK
AUCInf ([1]; 100 mg/kg): 10750 ng·h/mL
T1/2 ([1]; 100 mg/kg): 6.65 h
Notes: tolerability (Beagle dogs; PO A, HPMC Enteric Coating Capsule, vs Initial Formulation and Dosing (PO B)): Improved
Notes: tolerability (Beagle dogs; PO C, Zofran given prior to compound 1 dosing): no difference
Loose feces observed, timepoint (Beagle dogs; dog, in vivo): d. Loose feces was observed from POC-4(8319440) at 8 h timepoint
Comment present (Beagle dogs; dog, in vivo, 100 mg/kg): No
Discoloration (Beagle dogs; dog, in vivo, 100 mg/kg): No
Dyspnea (labored breathing) (Beagle dogs; dog, in vivo, 100 mg/kg): No
Emesis observed, timepoint (Beagle dogs; dog, in vivo, 100 mg/kg): c. “Loose feces” and “emesis” were observed from POA-4(8319440) at 4 h timepoint
Feces with abnormal content (Beagle dogs; dog, in vivo, 100 mg/kg): No
Few feces (Beagle dogs; dog, in vivo, 100 mg/kg): No
Frothy (Beagle dogs; dog, in vivo, 100 mg/kg): No
Loose feces (Beagle dogs; dog, in vivo, 100 mg/kg): Yes(f)
Reduced food intake (Beagle dogs; dog, in vivo, 100 mg/kg): No
Soft Stool (Beagle dogs; dog, in vivo, 100 mg/kg): No
Soft stool observed, timepoint (Beagle dogs; dog, in vivo, 100 mg/kg): f. Soft stool was observed from POA-3(8310744) and POA-4(8319440) at 24 h timepoint
Some broken capsule found in the loose feces, timepoint (Beagle dogs; dog, in vivo, 100 mg/kg): b. Some broken capsule was found in the loose feces at 30 min timepoint from POA-3
Temperature Drop (Beagle dogs; dog, in vivo, 100 mg/kg): No
Temperature Rise (Beagle dogs; dog, in vivo, 100 mg/kg): No
Torpidity (Beagle dogs; dog, in vivo, 100 mg/kg): No
Tremor (slight) (Beagle dogs; dog, in vivo, 100 mg/kg): No
Uncoordinated movement (Beagle dogs; dog, in vivo, 100 mg/kg): No
Weight drop (Beagle dogs; dog, in vivo, 100 mg/kg): No
Comment present (Beagle dogs; dog, in vivo, iv, 10 mg/kg): No
Diarrhea (Beagle dogs; dog, in vivo, iv, 10 mg/kg): No
Discoloration (Beagle dogs; dog, in vivo, iv, 10 mg/kg): No
Dyspnea (labored breathing) (Beagle dogs; dog, in vivo, iv, 10 mg/kg): No
Feces with abnormal content (Beagle dogs; dog, in vivo, iv, 10 mg/kg): No
Few feces (Beagle dogs; dog, in vivo, iv, 10 mg/kg): No
Frothy (Beagle dogs; dog, in vivo, iv, 10 mg/kg): No
Loose feces (Beagle dogs; dog, in vivo, iv, 10 mg/kg): No
Reduced food intake (Beagle dogs; dog, in vivo, iv, 10 mg/kg): No
Soft Stool (Beagle dogs; dog, in vivo, iv, 10 mg/kg): No
Temperature Drop (Beagle dogs; dog, in vivo, iv, 10 mg/kg): No
Temperature Rise (Beagle dogs; dog, in vivo, iv, 10 mg/kg): No
Torpidity (Beagle dogs; dog, in vivo, iv, 10 mg/kg): No
Tremor (slight) (Beagle dogs; dog, in vivo, iv, 10 mg/kg): No
Uncoordinated movement (Beagle dogs; dog, in vivo, iv, 10 mg/kg): No
Weight drop (Beagle dogs; dog, in vivo, iv, 10 mg/kg): No
Gastrointestinal adverse events (human subjects [2]): Low-grade gastrointestinal adverse events were prominent
Adverse events reported, character (human subjects [3]): primarily GI, low-grade, monitorable, manageable, and reversible
Dose limiting toxicities (human subjects [3]): no dose limiting toxicities
Dose suggested as suitable for phase 2 studies (human subjects [3]): 800 mg QD
Gastrointestinal adverse events (human subjects [3]): Low-grade gastrointestinal adverse events were prominent

From patent US20230000820A1, “SOLID DOSAGE FORM OF N-1-PYRROLIDINE-N-5-(3-TRIFLUOROMETHOXY)PHENYL BIGUANIDE AND USES THEREOF” (ImmunoMet Therapeutics, Inc., priority 2021, published 2023)
